This test deals with rabbits. The experiment in a line: Tear film production by Schirmer's Tear Flo Strips in rabbits. The format is in vivo, rabbit. The procedure:
Each eye of each rabbit was assessed for tear film production by Schirmer's Tear Flo Strips at a 30 second interval of analysis. Tear measures were evaluated by a digital caliper to determine mm of tears collected.
3 days post treatment at the same time initial measures were made, IOP and tear film production were re-assessed to examine if effects were sustained post 1 treatment.
Effects of Compound 1 on Tear Production: Current IOP lowering glaucoma drugs eventually have effects on tear production resulting in dry eye conditions. Further, there are additional associations between dry eye and glaucoma, with co-incidence of the two conditions quite common. […] Selective 5-HT agonists/antagonists can reverse symptoms of dry eye-a very large ophthalmic market. The effects of Compound 1 on tear film production (see, for example, FIG. 6 panels A-D) were therefore assessed by a Schirmer's Tear Flo strip and measured using a digital micrometer caliper.
• Rabbits were assessed for clinically clear eyes by slit lamp ophthalmic scoring. All eyes of all rabbits were normal. • Each eye of each rabbit was then assessed for initial IOP by tonometer. • Each eye of each rabbit was assessed for tear film production by Schirmer's Tear Flo Strips at a 30 second interval of analysis. Tear measures were evaluated by a digital caliper to determine mm of tears collected. • Rabbits were sorted into two groups attempting to balance IOP numbers (one higher, one lower animal per group). • Following animals were treated with 50 μL of Control ophthalmic BSS/0.5% CMC or 0.01% R-DOI HCl in ophthalmic BSS/0.5% CMC. • Any apparent behavioral changes were continuously monitored over the next 2.5 hours. • IOP determinations were made at 30 minutes, 1 hour, 2 hours and 3 hours, 5 hours, 7 hours and 24 hours-eyes were examined closely for any adverse effects during these IOP measures. • 7 hours post treatment when IOP returned to control levels tear film production was assessed (see, for example, FIG. 9).
Effects of R-DOI on Tear Production: Current IOP lowering glaucoma drugs eventually have effects on tear production resulting in dry eye conditions. Further, there are additional associations between dry eye and glaucoma, with co-incidence of the two conditions common. […] Selective 5-HT agonists/antagonists can reverse symptoms of dry eye-a very large ophthalmic market. The effects of R-DOI on tear film production were therefore assessed by a Schirmer's Tear Flo strip and measured using a digital micrometer caliper.

“Also recorded” adds a separate entry of the source.

For the compound `COc1cc(C[C@@H](C)N)c(OC)cc1I` [R-DOI, (R)-1-(2,5-dimethoxy-4-iodophenyl)-2-aminopropane], where the note is “0.01% single dose, 7 h post treatment”, the “average increase in tear film production” value turned out to be 2.27 mm. Besides, the “tear production as measured by Schirmer's test” value (topical ocular dose) was “increased tear production relative to initial and control treatment; also recorded: significant increase in tear production”.
